Columns and labels:
[1] = Photostability measurements; type: physicochemical; conditions: 10 μM in PBS buffer pH 7.4 with 1% DMSO, intensive radiation of strong light source
Experimental: 10 μM of CO-1 solution in PBS buffer (pH 7.4) containing 1% DMSO were placed in a 96-well plates. Fluorescence measurement were recorded every 30 s interval for a total period of 12 h (Ex/Em=490/520) under a xenon flashlamp. For harsh condition experiment, photostability test was done under high intensity UV lamp (Blak Ray, 100 W, 365 nm). Plates were irradiated for 10 min up to 2.5 h at 10 cm distance.
Supplementary Figure 17 Photostability analysis of CO-1.
10 μM CO-1 solution in PBS buffer (pH 7.4) containing 1% DMSO were placed in a 96-well plates. (a) Fluorescence measurement were recorded every 30 seconds interval for a total period of 12 hours (Ex/Em = 490/520) under a xenon flashlamp. (b) Photostability test under high intensity UV lamp (Blak Ray, 100W, 365 nm). Plates were irradiated for 10 minutes up to 2.5 hours at 10 cm distance. Values are represented as means (n=3) and fitted to a non-linear regression one-phase exponential decay (GraphPad Prism 5.0)
(§1) (1 picture or pasted object on this page, not shown here)

U-2 OS cells = test: Cell viability assay (MTS); type: cell-based, human; conditions: 0-10 μM, 1-16 h
Experimental: Cell viability was assessed using MTS assay kit (Promega). 1 × 10^5 U-2 OS cells were seeded on 10 mm culture dishes; cells were stained with or without CO-1 ([…]) for 1–16 h. After incubation, the MTS reagent was added and incubated for 4 h at 37 °C. Absorbance was determined at 490 nm using SpectraMax M2 plate reader.
Supplementary Figure 18 Cell viability test for CO-1.
Cell viability was measured by MTS assay for concentration of probe at 0 μM, 0.3 μM, 1 μM, 3 μM and 10 μM in 1 hour, 4 hours and 16 hours incubation in U-2 OS cells. Absorbance was determined at 490 nm. Each absorbance value was subtracted with blank sample (blank sample = cells containing compound at respective concentration without MTS reagent). Cell viability was calculated by: (viable cells)% = (OD of treated sample/OD of untreated sample)×100. Data are presented as the means + SD obtained from triplicate experiments.
(also on this page, place not known: 25 50 75 100 hour (%) Incubation time CO-1 0 μM μM μM 0 0.3 1 3 μM 10 μM 1 4 hours 16 hours U -2 ( blank reagent) . Cell viability)
as §1

[2] = test system: azide-tagged intracellular organelles in U-2 OS cells; test: Live cell SPAAC labelling of azide-tagged organelles (mitochondria, lysosome, golgi apparatus); type: cell-based, human; conditions: U-2 OS cells pre-treated with TPP-Az, Sphingo-Az or Morph-Az, 2 μM probe, 1 h, 37 °C
Source text: Next, we investigated intracellular imaging in live cells using CO-1. We synthesized various azide-bearing reporters: TPP-Az, a triphenylphosphonium analogue which accumulates in mitochondria; Sphingo-Az, a ceramide analogue to target golgi apparatus; and Morph-Az, an azide derivative with morpholine moiety as a directing group for lysosome (Fig. 3a). SPAAC covalent labelling reactions between CO-1 and all azide reporters in vitro were clean and rapid. We anticipated that the cell permeable CO-1 is capable of labelling any azide reporters effectively, regardless the reporters' cellular localization. We added 2 μM CO-1 to the growth media of U-2 OS cells pre-treated with TPP-Az, Sphingo-Az or Morph-Az separately. Confocal fluorescence images were then taken after probe washing.
Figure 3 Live cell imaging with CO-1. (a) Chemical structures and schematic illustration of the covalent labelling of azide-tagged organelles using CO-1 in live cells. (b) Fluorescence imaging of mitochondria, lysosome and golgi apparatus in U-2 OS cells labelled with CO-1. Cells pre-treated with TPP-Az, Morph-Az or Sphingo-Az were incubated with 2 μM CO-1 in growth media at 37 °C for 1 h and followed by counterstaining with organelle trackers. Scale bar, 15 μm. (c) Fluorescence imaging of histone H2B in live U-2 OS. U-2 OS cells were co-transfected with plasmids pIre-Azi3 and pmH2B-6-mKate2-16tag to incorporate UAA Azi into H2B-mKate2 at site 16. After Azi incorporation, cells were labelled with 10 μM CO-1 for 90 min at 37 °C. Cells were then washed and imaged. The mKate2 (red) signals were detected in cell nuclei only, and colocalized with the CO-1 (green) signals in the merged image. Scale bar, 5 μm.
U-2 OS cells were treated with 5 μM TPP-Az, in culture media for 2 h at 37 °C. After incubation, cells were washed and added with 2 μM CO-1 probe. Labelling was allowed to proceed for 1 h at 37 °C in the incubator chamber. […]
Fluorescence imaging of mitochondria, lysosome and golgi apparatus in U-2 OS cells labeled with CO-1H. […] In contrast to CO-1, high fluorescence background from CO-1H was observed. […]

Cc1cc(C)n2c1C(CCNC(=O)CCC(=O)OCC1C3CCC#CCCC31)=C1C=CC=[N+]1[B-]2(F)F (stereo not shown) [CO-1]
Photostability [1]: superior photostability
Cell viability / toxicity (U-2 OS cells): nontoxic and did not interfere with cell proliferation
Fluorescence background after washing [2]: Clean fluorescence background
Labelling of azide-tagged organelles [2]: clearly labelled the azide-tagged intracellular organelles in live cells
